The results in this text go back to ChEMBL document CHEMBL4725218, “Deep Learning Enhancing Kinome-Wide Polypharmacology Profiling: Model Construction and Experiment Validation” (J Med Chem, 2020).

In this assay the target is T1, Muscle, skeletal receptor tyrosine-protein kinase (Homo sapiens) (UniProt O15146).
T1 sequence (whole entry): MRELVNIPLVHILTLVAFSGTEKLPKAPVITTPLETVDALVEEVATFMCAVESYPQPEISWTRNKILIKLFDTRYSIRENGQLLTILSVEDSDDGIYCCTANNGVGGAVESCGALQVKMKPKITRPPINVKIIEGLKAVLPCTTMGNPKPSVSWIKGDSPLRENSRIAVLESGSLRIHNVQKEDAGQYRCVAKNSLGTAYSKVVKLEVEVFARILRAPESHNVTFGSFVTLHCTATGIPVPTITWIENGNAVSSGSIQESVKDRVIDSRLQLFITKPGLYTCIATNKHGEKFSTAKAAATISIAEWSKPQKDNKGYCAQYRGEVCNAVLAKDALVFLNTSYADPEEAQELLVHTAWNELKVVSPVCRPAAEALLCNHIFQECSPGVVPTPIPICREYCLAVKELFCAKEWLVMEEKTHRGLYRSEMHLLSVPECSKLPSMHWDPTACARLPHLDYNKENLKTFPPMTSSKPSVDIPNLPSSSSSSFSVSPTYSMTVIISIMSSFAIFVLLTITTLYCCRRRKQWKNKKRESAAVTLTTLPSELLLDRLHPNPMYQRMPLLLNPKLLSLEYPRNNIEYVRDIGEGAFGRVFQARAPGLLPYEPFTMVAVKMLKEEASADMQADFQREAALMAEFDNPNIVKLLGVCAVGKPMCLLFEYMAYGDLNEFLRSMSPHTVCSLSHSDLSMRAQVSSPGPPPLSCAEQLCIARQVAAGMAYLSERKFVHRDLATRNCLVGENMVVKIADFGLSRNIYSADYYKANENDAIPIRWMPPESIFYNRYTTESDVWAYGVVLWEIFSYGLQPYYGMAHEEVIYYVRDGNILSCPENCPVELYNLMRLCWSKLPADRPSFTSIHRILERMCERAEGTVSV
The assay is described as follows: Inhibition of human MuSK assessed as remaining enzyme activity at 0.01 uM.

For the compound `CNC(=O)c1cc(Oc2ccc(NC(=O)Nc3ccc(Cl)c(C(F)(F)F)c3)c(F)c2)ccn1`, the Activity is 89%.
